Results: PMC9995496, “A screen for MeCP2-TBL1 interaction inhibitors using a luminescence-based assay” (Scientific Reports, 2023)
Counter-ions that a name gives are not always drawn. Like-named read-outs stand apart in the source and are kept apart here. Ends that are not written are not given here.

System: PRKACA-PRKAR2A interaction (SmBiT-PRKACA / LgBiT-PRKAR2A), protein kinase A
Set-up: NanoLuc complementation counter-screen in cell extract, PRKACA with PRKAR2A, loss of luminescence, detects NanoLuc interference
Settings: 0.5 h, 20 µM, inhibitor
[1] = counter-screen for NanoLuc interference

| Compound | Inh (PKA) [1] | also measured |
| --- | --- | --- |
| CC(C)(O)c1coc(S(=O)(=O)NC(=O)Nc2c3c(cc4c2CCC4)CCC3)c1 [UM0142816:01, MCC950 sodium] | -1.906% |  |
| Cc1c(CN2CCN(S(C)(=O)=O)CC2)sc2c(N3CCOCC3)nc(-c3cnc(N)nc3)nc12 [UM0142817:01, GNE-477] | 0.346% |  |
| COc1ccc(N(C(=O)Oc2c(C)cccc2C)c2ccnc(Nc3ccc(N4CCN(C)CC4)cc3)n2)c(OC)c1 [UM0142819:01, WH-4-023] |  | Inh (PKA): 37.82% |
| CCCCNc1ncc2c(-c3ccc(CN4CCN(C)CC4)cc3)cn([C@H]3CC[C@H](O)CC3)c2n1 [UM0142820:01, UNC2025] | 23.55% |  |
| CC(C)OC(=O)[C@H](C)N[P@](=O)(CO[C@H](C)Cn1cnc2c(N)ncnc21)Oc1ccccc1 [UM0142821:01, GS-7340] |  | Inh (PKA): 0.4788 |
| CCS(=O)(=O)N1CCN(c2ccc(Nc3ncc(C(N)=O)c(NC4CC4)n3)cc2)CC1 [UM0142822:01, Cerdulatinib (PRT062070)] | 16.29% |  |
| C=C(Cc1ccccc1Cl)C(=O)OCC [UM0142823:01, INF39] | 8.84% |  |
| CC1=C(CSC(=S)N2CCCCC2)C(=O)c2ccccc2C1=O [UM0142824:01, PKM2 inhibitor(compound 3k)] | 18.26% |  |
| N#Cc1cnc(Nc2cc(NC[C@H]3CNCCO3)c(C(F)(F)F)cn2)cn1 [UM0142825:01, CCT245737] | 4.036% |  |
| NS(=O)(=O)c1nn2cc(-c3ccccc3)nc2s1 [UM0142826:01, AEG 3482] | 8.076% |  |
| O=C(c1ccc(Cl)cc1)N(Cc1ccccc1)C1CCCCC1 [UM0142831:01, FPS-ZM1] | 22.08% |  |
| O=C(O)C1=C(CSc2nnnn2CS(=O)(=O)O)CS[C@@H]2[C@H](NC(=O)[C@H](O)c3ccccc3)C(=O)N12 [UM0142832:01, Cefonicid (sodium salt)] | 2.197% |  |
| Cc1cc(C)nc(NC(=S)N2CCN(Cc3ccc(C(F)(F)F)cc3)CC2)c1 [UM0142833:01, NCT-503] | 4.726% |  |
| N[C@@H](CC(=O)N1CCn2c(nnc2C(F)(F)F)C1)Cc1cc(F)c(F)cc1F [UM0142834:01, Sitagliptin (phosphate)] |  | Inh (PKA) (counter-screen for NanoLuc interference, Inh (PKA)): -0.1445% |
| O=C(CCCCCCC(=O)Nc1ccc(I)cc1)NO [UM0142835:01, 4-iodo-SAHA] | 5.197% |  |
| CCCCCCCCCc1ccc(B(O)O)cc1 [UM0142836:01, 4-(n-nonyl) Benzeneboronic Acid] | -0.3283% |  |
| Cc1snnc1-c1ccccc1 [UM0142838:01, 4-phenyl-5-methyl-1,2,3-Thiadiazole] | 0.1553% |  |
| CC(C)(C)C(O)/C(=C\c1ccc(Cl)cc1)n1cncn1 (stereo not shown) [UM0142839:01, Uniconazole] | 40.56% |  |
| CC(=O)O[C@H]1C[C@@]2(C)[C@@H](C[C@@H](O)[C@H]3[C@@]4(C)CC[C@@H](O)[C@@H](C)[C@@H]4CC[C@@]32C)/C1=C(\CCC=C(C)C)C(=O)O [UM0142840:01, Fusidic Acid (sodium salt)] | 1.888% |  |
| COc1cc(/C=C/CO)cc(OC)c1O[C@@H]1O[C@H](CO)[C@@H](O)[C@H](O)[C@H]1O [UM0142842:01, Syringin] | -0.4642% |  |
| C[C@H]1[C@H](C)CC[C@]2(C(=O)O)CC[C@]3(C)C(=CC[C@@H]4[C@@]5(C)C[C@@H](O)[C@H](O)[C@@](C)(CO)[C@@H]5CC[C@]43C)[C@H]12 [UM0142843:01, Asiatic acid] | 9.304% |  |
| C[C@H]1[C@H](C)CC[C@]2(C(=O)O[C@@H]3O[C@H](CO[C@@H]4O[C@H](CO)[C@@H](O[C@@H]5O[C@H](C)[C@H](O)[C@@H](O)[C@H]5O)[C@H](O)[C@H]4O)[C@@H](O)[C@H](O)[C@H]3O)CC[C@]3(C)C(=CC[C@@H]4[C@@]5(C)C[C@@H](O)[C@H](O)[C@@](C)(CO)[C@@H]5CC[C@]43C)[C@H]12 [UM0142844:01, Asiaticoside] | -0.7873% |  |
| O=C1C[C@@H](c2ccc(O)cc2)Oc2cc(O)cc(O)c21 [UM0142845:01, Naringenin] | 6.247% |  |

| Compound | Inh (PKA) [1] | also measured |
| --- | --- | --- |
| C=C1CC[C@@H]2[C@](C)(CO)[C@H](O)CC[C@@]2(C)[C@H]1C/C=C1\C=COC1=O [UM0142846:01, Dehydroandrographolide] | 12.37% |  |
| CC(C)=CCCC(C)(O)C1CCC2(C)C1C(O)CC1C3(C)CCC(O)C(C)(C)C3CCC12C (stereo not shown) [UM0142847:01, Protopanaxdiol] | 2.916% |  |
| OC[C@H]1NC[C@H](O)[C@@H](O)[C@@H]1O [UM0142849:01, 1-Deoxynojirimycin] | 1.08% |  |
| C[C@H](CCC(=O)O)[C@H]1CC[C@H]2[C@@H]3CC[C@@H]4C[C@H](O)CC[C@]4(C)[C@H]3C[C@H](O)[C@]12C [UM0142850:01, Deoxycholic acid] | 5.283% |  |
| O=C(O)c1cc(O)c2c(c1)[C@@H]([C@H]1c3cc(C(=O)O)cc(O)c3C(=O)c3c(O[C@@H]4O[C@H](CO)[C@@H](O)[C@H](O)[C@H]4O)cccc31)c1cccc(O[C@@H]3O[C@H](CO)[C@@H](O)[C@H](O)[C@H]3O)c1C2=O [UM0142851:01, Sennoside B] | 36.22% |  |
| O=C(O)c1cc(O)c2c(c1)[C@H]([C@H]1c3cc(C(=O)O)cc(O)c3C(=O)c3c(O[C@@H]4O[C@H](CO)[C@@H](O)[C@H](O)[C@H]4O)cccc31)c1cccc(O[C@@H]3O[C@H](CO)[C@@H](O)[C@H](O)[C@H]3O)c1C2=O [UM0142852:01, Sennoside A] | 33.8% |  |
| C[C@H]1[C@@H](O)O[C@@H]2O[C@@]3(C)CC[C@H]4[C@H](C)CC[C@@H]1[C@@]24OO3 [UM0142853:01, Dihydroartemisinin] | 0.1421% |  |
| CC1(C)[C@@H](O[C@H]2O[C@H](C(=O)O)[C@@H](O)[C@H](O)[C@H]2O[C@@H]2O[C@H](C(=O)O)[C@@H](O)[C@H](O)[C@H]2O)CC[C@]2(C)[C@H]3C(=O)C=C4[C@@H]5C[C@@](C)(C(=O)O)CC[C@]5(C)CC[C@@]4(C)[C@]3(C)CC[C@@H]12 [UM0142854:01, Glycyrrhizic acid] | 4.863% |  |
| O=C1c2c(O)cc(O)cc2O[C@H](c2ccc(O)c(O)c2)[C@H]1O [UM0142856:01, Taxifolin] | 0.9672% |  |
| Cc1coc2c1C(=O)C(=O)c1c-2ccc2c(C)cccc12 [UM0142857:01, Tanshinone I] | 27.32% |  |
| O=C1c2c(O)cc(O)cc2O[C@H](c2cc(O)c(O)c(O)c2)[C@H]1O [UM0142858:01, Dihydromyricetin] | 4.571% |  |
| C=C1CC[C@@H]2[C@](C)(CO)[C@H](O)CC[C@@]2(C)[C@@H]1C/C=C1/C(=O)OC[C@H]1O [UM0142859:01, Andrographolide] | 1.527% |  |
| COc1ccc([C@@H]2CC(=O)c3c(O)cc(O)cc3O2)cc1O [UM0142860:01, Hesperitin] | 3.061% |  |
| CCc1c2c(nc3ccc(O)cc13)-c1cc3c(c(=O)n1C2)COC(=O)[C@]3(O)CC [UM0142861:01, 7-Ethyl-10-hydroxycamptothecin] | 8.347% |  |
| COC1=C[C@@H]2[C@@H]3Cc4ccc(OC)c(O)c4[C@]2(CCN3C)CC1=O [UM0142862:01, Sinomenine Hydrochloride] |  | Inh (PKA): 0.8653% |
| O=c1cc(-c2ccc(O)c(-c3c(O)cc(O)c4c(=O)cc(-c5ccc(O)cc5)oc34)c2)oc2cc(O)cc(O)c12 [UM0142863:01, Amentoflavone] | 47.02% |  |
| CCCC[N+]1(C)[C@@H]2C[C@@H](OC(=O)[C@H](CO)c3ccccc3)C[C@H]1[C@@H]1O[C@@H]12 (stereo partly shown) [UM0142864:01, Scopolamine butylbromide] | 0.502% |  |
| Nc1ncnc2c1ncn2[C@@H]1O[C@H](CO)C[C@H]1O [UM0142866:01, Cordycepin] | -8.119% |  |
| Nc1ccccc1NC(=O)CCCCCCC(=O)Nc1ccccc1 [UM0142867:01, BML-210(CAY10433)] | 8.004% |  |
| Fc1ccc(C(c2ccc(F)cc2)N2CCN(C/C=C/c3ccccc3)CC2)cc1 [flunarizine] | 10.34% |  |
| C=C1C(=O)[C@]23[C@H](O)[C@H]1CC[C@H]2[C@@]12CO[C@]3(O)[C@@H](O)[C@@H]1C(C)(C)CC[C@@H]2O [oridonin] | 14.12% |  |
| QVPSRPNRAP [UM0141376:01, Dynamin inhibitory peptide] | 1.092% |  |
| VPMLK [UM0141837:01, Bax inhibitor peptide V5] | -2.196% |  |
